Tested on: 874868-142-R-J2-PDC complex spheroids, growth % test/control
Assay: Anticancer human tumor 874868-142-R-J2-PDC patient-derived head and neck squamous carcinoma cell line growth inhibition [CLK]
Conditions: for IC50: curve of first compound; for viability, T/C: stronger effect = lower value
Summary of the method: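 Patient-derived tumor cells grown as complex spheroids with HUVEC endothelial cells and mesenchymal stem cells, treated with drug combinations. Concentrations descend in half-log steps from near clinical Cmax, or from 10 microM if Cmax unknown.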

[1] = second compound 0.0316 µM, first compound 0.0316 µM
[2] = second compound 0.0316 µM, first compound 0.1 µM
[3] = second compound 0.0316 µM, first compound 0.316 µM
[4] = second compound 0.0316 µM, first compound 1 µM
[5] = second compound 0.0316 µM, first compound 3.16 µM
[6] = second compound 0.0316 µM, first compound 10 µM
[7] = second compound 0.1 µM, first compound 0.0316 µM
[8] = second compound 0.1 µM, first compound 0.1 µM
[9] = second compound 0.1 µM, first compound 0.316 µM
[10] = second compound 0.1 µM, first compound 1 µM
[11] = second compound 0.1 µM, first compound 3.16 µM
[12] = second compound 0.1 µM, first compound 10 µM
[13] = second compound 0.316 µM, first compound 0.0316 µM
[14] = second compound 0.316 µM, first compound 0.1 µM
[15] = second compound 0.316 µM, first compound 0.316 µM
[16] = second compound 0.316 µM, first compound 1 µM
[17] = second compound 0.316 µM, first compound 3.16 µM
[18] = second compound 0.316 µM, first compound 10 µM
[19] = second compound 1 µM, first compound 0.0316 µM
[20] = second compound 1 µM, first compound 0.1 µM
[21] = second compound 1 µM, first compound 0.316 µM
[22] = second compound 1 µM, first compound 1 µM
[23] = second compound 1 µM, first compound 3.16 µM
[24] = second compound 1 µM, first compound 10 µM
[25] = second compound 3.16 µM, first compound 0.0316 µM
[26] = second compound 3.16 µM, first compound 0.1 µM
[27] = second compound 3.16 µM, first compound 0.316 µM
[28] = second compound 3.16 µM, first compound 1 µM
[29] = second compound 3.16 µM, first compound 3.16 µM
[30] = second compound 3.16 µM, first compound 10 µM
[31] = second compound 10 µM, first compound 0.0316 µM
[32] = second compound 10 µM, first compound 0.1 µM
[33] = second compound 10 µM, first compound 0.316 µM
[34] = second compound 10 µM, first compound 1 µM
[35] = second compound 10 µM, first compound 3.16 µM
[36] = second compound 10 µM, first compound 10 µM
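Note: spheroids exposed to the compounds for 7 days.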
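Throughout, for viability, T/C: 100% = DMSO vehicle control viability.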

With `CC(=O)O[C@H]1C(=O)[C@@]2(C)[C@H]([C@H](OC(=O)c3ccccc3)[C@]3(O)C[C@H](OC(=O)[C@H](O)[C@@H](NC(=O)c4ccccc4)c4ccccc4)C(C)=C1C3(C)C)[C@]1(OC(C)=O)CO[C@@H]1C[C@@H]2O` + CN1CCN(c2cc(C(=O)Nc3cc4cc(-c5cnn(C)c5)ccc4cn3)ccn2)CC1 the IC50 (second compound 0.0316 µM) was < 31.6 nM, the IC50 (second compound 0.1 µM) was < 31.6 nM and the IC50 (second compound 0.316 µM) was < 31.6 nM. For the same molecule, the IC50 (second compound 1 µM) was < 31.6 nM, the IC50 (second compound 3.16 µM) was < 31.6 nM and the IC50 (second compound 10 µM) was < 31.6 nM. For the same molecule, the viability, T/C [1] was 26.6%, the viability, T/C [2] was 18.9% and the viability, T/C [3] was 19.1%. The viability, T/C [4] was 22%, the viability, T/C [5] was 21.3% and the viability, T/C [6] was 27.4%. The viability, T/C [7] was 28.1%, the viability, T/C [8] was 19.6% and the viability, T/C [9] was 20%. The viability, T/C [10] was 18.1%, the viability, T/C [11] was 14.7% and the viability, T/C [12] was 27.9%. It also gave a viability, T/C [13] of 13%, a viability, T/C [14] of 15.6% and a viability, T/C [15] of 15.3%. For the same molecule, the viability, T/C [16] was 9.43%, the viability, T/C [17] was 17.7% and the viability, T/C [18] was 17.3%. The viability, T/C [19] was 0.22%, the viability, T/C [20] was 0.23% and the viability, T/C [21] was 0.5%. For the same molecule, the viability, T/C [22] was 0.59%, the viability, T/C [23] was 0.23% and the viability, T/C [24] was 0.27%. For the same molecule, the viability, T/C [25] was 0.16%, the viability, T/C [26] was 0.16% and the viability, T/C [27] was 2.82%. For the same molecule, the viability, T/C [28] was 0.21%, the viability, T/C [29] was 0.18% and the viability, T/C [30] was 0.15%. For the same molecule, the viability, T/C [31] was 0.12%, the viability, T/C [32] was 0.18% and the viability, T/C [33] was 1.66%. It also gave a viability, T/C [34] of 0.18%, a viability, T/C [35] of 2.53% and a viability, T/C [36] of 1.6%.
For `COc1ccc([C@@H](O)c2cc(-c3ncnc4cc(N5CCOCC5)ccc34)c(F)cc2Cl)nn1` + CN1CCN(c2cc(C(=O)Nc3cc4cc(-c5cnn(C)c5)ccc4cn3)ccn2)CC1, the IC50 (second compound 0.0316 µM) was 1990 nM, the IC50 (second compound 0.1 µM) was 899 nM and the IC50 (second compound 0.316 µM) was < 31.6 nM. For the same molecule, the IC50 (second compound 1 µM) was < 31.6 nM, the IC50 (second compound 3.16 µM) was < 31.6 nM and the IC50 (second compound 10 µM) was < 31.6 nM. The viability, T/C [1] was 83.6%, the viability, T/C [2] was 77.9% and the viability, T/C [3] was 74.9%. The viability, T/C [4] was 70.4%, the viability, T/C [5] was 36.1% and the viability, T/C [6] was 32.6%. The viability, T/C [7] was 71%, the viability, T/C [8] was 62.7% and the viability, T/C [9] was 64.5%. The viability, T/C [10] was 48.8%, the viability, T/C [11] was 30.9% and the viability, T/C [12] was 30.3%. For the same molecule, the viability, T/C [13] was 17.3%, the viability, T/C [14] was 12.2% and the viability, T/C [15] was 13.4%. It also gave a viability, T/C [16] of 9.3%, a viability, T/C [17] of 14.9% and a viability, T/C [18] of 13.4%. The viability, T/C [19] was 0.18%, the viability, T/C [20] was 0.23% and the viability, T/C [21] was 2.66%. For the same molecule, the viability, T/C [22] was 0.22%, the viability, T/C [23] was 0.24% and the viability, T/C [24] was 0.33%. The viability, T/C [25] was 0.22%, the viability, T/C [26] was 0.16% and the viability, T/C [27] was 3.99%. It also gave a viability, T/C [28] of 0.25%, a viability, T/C [29] of 0.23% and a viability, T/C [30] of 0.35%. It also gave a viability, T/C [31] of 0.06%, a viability, T/C [32] of 0.15% and a viability, T/C [33] of 2.92%. The viability, T/C [34] was 0.15%, the viability, T/C [35] was 0.22% and the viability, T/C [36] was 3.6%.

Source: PubChem BioAssay AID2060601 (Molecular Pharmacology Branch, DTP, NCI, 2025)
